US20240277583A1, “Micellar Mouthwash Composition” (Colgate-Palmolive Company, priority 2022, published 2024)

Columns and labels:
[1] = Colloid particle (micelle) size by dynamic light scattering; type: physicochemical; conditions: colloid particle diameter
Excerpt: Next, the colloid particle (micelle) size in Formulations A and B as well as Elmex mouthwash is examined.
In contrast, the micelle size of Formulation B is around 14.1 nm, close to that of PEG-40 hydrogenated castor oil (16.0 nm). Although the inflection point of the surface tension curve is not obvious in the Elmex mouthwash, dynamic light scattering detects colloid particles with 12.2 nm diameter, which are likely solubilized oil droplets in the mouthwash product. With the smallest particle size (amine fluoride/coco glucoside<amine fluoride<amine fluoride/PEG-40 hydrogenated castor oil), amine fluoride/cocoyl glucoside complex is most mobile and can likely reach smaller spaces that others cannot reach. This feature would likely enhance the delivery of active encapsulated in the micelle core, and also enhance availability of amine fluoride, therefore improving its antibacterial efficacy.

[2] = Diffusion rate D determined by NMR; type: physicochemical

- Micelle size (nm) mean [1]: 6.6 nm
- D in individual solution ([2]; ingredient alone in solution): 4.84 × 10^−6 cm^2/s
- D in Formulation A ([2]; ingredient within Formulation A (Olaflur + coco glucoside)): 2.27 × 10^−6 cm^2/s
- D in Formulation B ([2]; ingredient within Formulation B (Olaflur + PEG-40 hydrogenated castor oil)): 4.33 × 10^−6 cm^2/s
SMILES: CCCCCCCCCCCCCCCCCCN(CCO)CCCN(CCO)CCO.F.F [Olaflur, N′-octadecyltrimethylenediamine-N,N,N′-tris(2-ethanol)-dihydrofluoride]
